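Test compounds were applied to cells in 96-well plates for 48 hours at 5 doses. TGI: total growth inhibition.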
What was measured:
Assay in all cases: inhibition of tumour cell growth, NCI panel, 48 h
HCT-15 colon = tested on: HCT-15 colon
UACC-62 melanoma = tested on: UACC-62 melanoma
SF-539 CNS = tested on: SF-539 CNS
U251 CNS = tested on: U251 CNS
A549 NSCLC = tested on: A549 NSCLC
SK-MEL-2 melanoma = tested on: SK-MEL-2 melanoma
NCI-H522 lung = tested on: NCI-H522 lung
SK-OV-3 ovarian = tested on: SK-OV-3 ovarian
HCC-2998 colon = tested on: HCC-2998 colon
SNB-75 CNS = tested on: SNB-75 CNS
OVCAR-5 ovarian = tested on: OVCAR-5 ovarian
A498 renal = tested on: A498 renal
RPMI-8226 leukemia = tested on: RPMI-8226 leukemia
HS 578T breast = tested on: HS 578T breast
MCF7 breast = tested on: MCF7 breast

Row | Compound | TGI (HCT-15 colon) | TGI (UACC-62 melanoma) | TGI (SF-539 CNS) | TGI (U251 CNS) | TGI (A549 NSCLC) | TGI (SK-MEL-2 melanoma) | TGI (NCI-H522 lung) | TGI (SK-OV-3 ovarian) | TGI (HCC-2998 colon) | TGI (SNB-75 CNS) | TGI (OVCAR-5 ovarian) | TGI (A498 renal) | TGI (RPMI-8226 leukemia) | TGI (HS 578T breast) | TGI (MCF7 breast)
1 | O=C(NN1C(=O)C(Cl)C1c1ccccc1Cl)c1ccccc1O (stereo not drawn) | > 100 µM | > 100 µM | > 100 µM | > 100 µM | > 100 µM | > 100 µM | > 100 µM | > 100 µM | > 100 µM | > 100 µM | – | – | – | – | –
2 | COc1ccc(CCCN2c3ccccc3Sc3ccccc32)cc1 | > 100 µM | > 100 µM | > 100 µM | > 100 µM | > 100 µM | > 100 µM | > 100 µM | > 100 µM | > 100 µM | > 100 µM | > 100 µM | > 100 µM | > 100 µM | – | –
3 | CC1CCOc2ccc(cc2)C=Nc2ccc(cc2)-c2ccc(cc2)N=Cc2ccc(cc2)OCC1 (stereo not drawn) | > 100 µM | – | > 100 µM | > 100 µM | > 100 µM | > 100 µM | > 100 µM | > 100 µM | > 100 µM | – | > 100 µM | – | > 100 µM | > 100 µM | > 100 µM
4 | N#Cc1cc([N+](=O)[O-])ccc1NC(=O)C(=O)C(C(=O)c1ccc2ccccc2c1)C1OCc2ccccc21 (stereo not drawn) | 37.7 µM | 36.4 µM | 5.83 µM | 16.8 µM | > 89 µM | 16.2 µM | 13.8 µM | > 100 µM | 22.7 µM | 16.1 µM | 29.2 µM | 20.6 µM | > 66.6 µM | – | –
5 | Cc1ccc(NC(=O)/C(=N/NC(=O)C[N+](C)(C)C)c2nc3ccccc3[nH]c2=O)cc1 | > 100 µM | > 100 µM | > 100 µM | 85.3 µM | > 100 µM | > 100 µM | – | > 100 µM | > 100 µM | > 100 µM | > 100 µM | > 100 µM | > 100 µM | – | –
6 | COc1cc2c(c(OC)c1OC)-c1ccc(SC)c(=O)cc1[C@@H](NCc1cccc([N+](=O)[O-])c1)CC2 | – | 17.8 µM | 0.17 µM | < 0.01 µM | > 100 µM | – | – | > 100 µM | < 0.01 µM | > 100 µM | > 100 µM | – | – | – | –
7 | N#CCc1nc2cc(C(F)(F)F)ccc2s1 | > 100 µM | – | > 100 µM | > 100 µM | – | – | 34.5 µM | > 100 µM | – | > 100 µM | > 100 µM | > 100 µM | > 100 µM | – | –
8 | O=C1CCC2(c3ccc(Cl)cc3)Nc3ncncc3N12 (stereo not drawn) | > 10 µM | > 10 µM | > 10 µM | > 10 µM | > 10 µM | > 10 µM | > 10 µM | > 10 µM | > 10 µM | > 10 µM | > 10 µM | – | – | > 10 µM | > 10 µM
9 | CCOC(OCC)C(CC)[Se]c1ccccc1 (stereo not drawn) | 35 µM | > 100 µM | > 100 µM | > 100 µM | > 100 µM | > 100 µM | 46.2 µM | > 100 µM | > 100 µM | > 100 µM | > 100 µM | > 100 µM | 57.5 µM | – | –
10 | OCC1OC(c2ccccc2)CC1O (stereo not drawn) | > 100 µM | > 100 µM | > 100 µM | > 100 µM | > 100 µM | > 100 µM | – | > 100 µM | – | > 100 µM | > 100 µM | > 100 µM | – | – | > 100 µM
11 | COc1ccc(C2=C(Cl)c3cc(OC)c(OC)cc3C2)cc1OC | > 100 µM | > 100 µM | > 100 µM | > 100 µM | > 100 µM | – | > 100 µM | > 100 µM | > 100 µM | > 100 µM | – | > 100 µM | > 100 µM | – | –
12 | CCCC(=O)c1ccc(=O)n(C)c1 | > 100 µM | > 100 µM | > 100 µM | > 100 µM | > 100 µM | > 100 µM | > 100 µM | > 100 µM | > 100 µM | > 100 µM | > 100 µM | – | > 100 µM | – | –
13 | Cc1ccc(N=C2SC(=NN(C)C)SC2=Nc2ccc(C)cc2)cc1 | > 100 µM | > 100 µM | > 100 µM | > 100 µM | > 100 µM | > 100 µM | > 100 µM | > 100 µM | > 100 µM | > 100 µM | > 100 µM | > 100 µM | > 100 µM | > 100 µM | –
14 | Cn1nc2ccc3nccc(NCCNCCO)c3c2n1 | > 100 µM | > 100 µM | > 100 µM | > 100 µM | > 100 µM | – | > 100 µM | > 100 µM | > 100 µM | > 100 µM | > 100 µM | – | > 100 µM | – | –
15 | O=C(CC(c1ccccc1)C(C(=O)c1ccncc1)C(CC(=O)c1ccncc1)c1ccccc1)c1ccncc1 (stereo not drawn) | > 100 µM | > 100 µM | – | > 100 µM | > 100 µM | > 100 µM | – | 61.1 µM | > 100 µM | > 100 µM | > 100 µM | > 100 µM | > 100 µM | > 100 µM | –
16 | COc1cc2[nH]c(=O)c3cc(C)cc4c(Cl)nc(c1OC)c2c43 | > 100 µM | 96 µM | > 100 µM | > 100 µM | > 100 µM | > 100 µM | > 100 µM | > 100 µM | > 100 µM | 85.3 µM | > 100 µM | – | > 100 µM | – | > 100 µM
17 | COc1ccc(N2C(=O)C3c4[nH]c5ccccc5c4C4c5ccccc5CC4C3C2=O)cc1 (stereo not drawn) | > 100 µM | > 100 µM | > 100 µM | > 100 µM | > 100 µM | > 100 µM | > 100 µM | > 100 µM | > 100 µM | > 100 µM | > 100 µM | > 100 µM | – | – | > 100 µM
18 | CC1=CC(=O)/C(=C/n2c(=S)[nH]c3cc(C)ccc32)C(=O)O1 | > 100 µM | > 100 µM | > 100 µM | > 100 µM | > 100 µM | > 100 µM | > 100 µM | > 100 µM | > 100 µM | > 100 µM | > 100 µM | – | – | > 100 µM | > 100 µM

From PubChem BioAssay (NCI)
